This note sets out measurements from patent US20160296499A1, “Spiroindoline Antiparasitic Derivatives” (ZOETIS SERVICES LLC, priority 2013, published 2016).

Assay [1] deals with T1, bovine vesicular acetylcholine transporter (VAChT) (Bos taurus, UniProt E1BK36).
T1 sequence (E1BK36 1-524): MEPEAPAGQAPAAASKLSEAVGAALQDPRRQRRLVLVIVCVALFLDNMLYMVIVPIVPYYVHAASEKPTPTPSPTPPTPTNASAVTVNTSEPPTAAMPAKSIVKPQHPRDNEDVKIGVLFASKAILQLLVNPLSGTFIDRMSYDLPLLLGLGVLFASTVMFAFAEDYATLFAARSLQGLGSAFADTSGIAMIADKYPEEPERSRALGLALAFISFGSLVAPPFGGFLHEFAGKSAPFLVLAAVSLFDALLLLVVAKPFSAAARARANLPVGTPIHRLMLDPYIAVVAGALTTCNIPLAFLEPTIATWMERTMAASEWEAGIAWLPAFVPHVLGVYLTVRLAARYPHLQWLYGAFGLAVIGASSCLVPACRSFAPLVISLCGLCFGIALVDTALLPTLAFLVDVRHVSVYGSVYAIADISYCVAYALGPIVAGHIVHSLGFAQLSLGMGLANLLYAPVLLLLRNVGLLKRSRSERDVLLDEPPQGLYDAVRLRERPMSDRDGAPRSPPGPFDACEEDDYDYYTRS
As to the kind of experiment: Radioligand Binding Assay. Particulars: Bovine binding Ki, CHO-K1 membranes with recombinant bovine VAChT, [3H]Compound X6 0.3 nM.

For assay [2], the system named is Dirofilaria immitis microfilariae. Kind of assay: Dirofilaria immitis, Microfilariae (DiMF) In Vitro Assay. To be noted: Dirofilaria immitis.
The test system of assay [3] is Haemonchus contortus L3. As to the kind of experiment: Haemonchus contortus, Larvae Stage 3 (HcL3) In Vitro Assay. Particulars: Haemonchus contortus.
[4] abbreviates: 96 hours, 37° C., read-out: HcL3 MEC.
Setting [5] is: 72 h, read-out: Di MF, MEC, decrease in microfilariae motility by visual assessment, curve starting at 100 μM.
Where [6] appears, read: 96 h, read-out: HcL3 MEC, Minimal Effective Concentration whereby worm motility is inhibited by approximately 70%, 37° C., tested 0.001-100 μM.

Read-outs that look alike come from different tables or passages of the source.

The Ki is a measure of affinity in units of concentration, obtained from inhibition or displacement.

With `O=C(NCc1ccnc(Cl)c1)N1CC2(CCN(C/C=C/c3ccc(Cl)c(Cl)c3)CC2)c2c1ccc(Cl)c2Cl` [Example 136, (E)-4,5-dichloro-N-((2-chloropyridin-4-yl)methyl)-1′-(3-(3,4-dichlorophenyl)allyl)spiro[indoline-3,4′-piperidine]-1-carboxamide], the Ki in assay [1] came to 160 nM. In addition, the minimal effective concentration was 100 µM in assay [2] (72 hours, read-out: Di MF) and 3.3 µM in assay [3] (setting [4]).
Turning to `N#Cc1ccc(/C=C/CN2CCC3(CC2)CN(C(=O)NCc2ccnc(Cl)c2)c2cc4c(cc23)COC4)cc1` [Example 5, (E)-N-((2-chloropyridin-4-yl)methyl)-1′-(3-(4-cyanophenyl)allyl)-5,7-dihydrospiro[furo[3,4-f]indole-3,4′-piperidine]-1(2H)-carboxamide], in assay [1], the Ki is 70.1 nM. Moreover, the minimal effective concentration is 10 µM in assay [2] (setting [5]) and 33 µM in assay [3] (setting [6]).
Consider `O=C(NCc1ccc(F)cc1)N1CC2(CCN(C/C=C/c3ccc(Cl)c(Cl)c3)CC2)c2c1ccc1scnc21` [Example 16, (E)-1-(3-(3,4-dichlorophenyl)allyl)-N-(4-fluorobenzyl)spiro[piperidine-4,8′-thiazolo[4,5-e]indole]-6′(7′H)-carboxamide], for which the Ki in assay [1] is 7340 nM. In addition, the figures for the minimal effective concentration in assay [2] (setting [5]) and in assay [3] (setting [6]) were 3.3 µM and 100 µM, respectively.
For the molecule `O=C(NCc1ccnc(F)c1)N1CC2(CCN(C/C=C/c3ccc(F)cc3)CC2)c2ccc(C(F)(F)F)cc21` [Example 101, (E)-1′-(3-(4-fluorophenyl)allyl)-N-((2-fluoropyridin-4-yl)methyl)-6-(trifluoromethyl)spiro[indoline-3,4′-piperidine]-1-carboxamide], in assay [1], the inhibition constant (Ki) came out at 65.2 nM. For the same molecule, the minimal effective concentration was 10 µM in assay [2] (72 hours, read-out: Di MF) and 3.3 µM in assay [3] (setting [4]).
With `O=C(NCc1ccnc(Cl)c1)N1CC2(CCN(C/C=C/c3ccc(Cl)cc3)CC2)c2c1ccc1scnc21` [Example 39, (E)-1-(3-(4-chlorophenyl)allyl)-N-((2-chloropyridin-4-yl)methyl)spiro[piperidine-4,8′-thiazolo[4,5-e]indole]-6′(7′H)-carboxamide], the Ki in assay [1] stood at 90 nM. Also, the figures for the minimal effective concentration in assay [2] (setting [5]) and in assay [3] (setting [6]) were 3.3 µM and 6.9 µM, respectively.
The matching figures for `O=C(NCc1ccnc(Cl)c1)N1CC2(CCN(C/C=C/c3ccc(C(F)(F)F)cn3)CC2)c2ccc(C(F)(F)F)cc21` [Example 124, (E)-N-((2-chloropyridin-4-yl)methyl)-6-(trifluoromethyl)-1′-(3-(5-(trifluoromethyl)pyridin-2-yl)allyl)spiro[indoline-3,4′-piperidine]-1-carboxamide]: 106 nM, 10 µM and 1 µM.
The matching figures for `O=C(NCc1nccs1)N1CC2(CCN(C/C=C/c3ccc(Cl)c(Cl)c3)CC2)c2c1ccc1scnc21` [Example 23, (E)-1-(3-(3,4-dichlorophenyl)allyl)-N-(thiazol-2-ylmethyl)spiro[piperidine-4,8′-thiazolo[4,5-e]indole]-6′(7′H)-carboxamide]: 205 nM, 10 µM and 100 µM.
The matching figures for `O=C(NCc1ccnc(Cl)c1)N1CC2(CCN(C/C=C/c3ccc(Cl)cc3)CC2)c2cc(OC(F)(F)F)c(Cl)cc21` [Example 150, (E)-6-chloro-1′-(3-(4-chlorophenyl)allyl)-N-((2-chloropyridin-4-yl)methyl)-5-(trifluoromethoxy)spiro[indoline-3,4′-piperidine]-1-carboxamide]: 297 nM, 18.2 µM and 5.7 µM.
For the molecule `O=C(NCc1ccnc(Cl)c1)N1CC2(CCN(C/C=C/c3ccc(Cl)cc3)CC2)c2cc3c(cc21)OCO3` [Example 6, (E)-1-(3-(4-chlorophenyl)allyl)-N-((2-chloropyridin-4-yl)methyl)spiro[piperidine-4,7′-[1,3]dioxolo[4,5-f]indole]-5′(6′H)-carboxamide], the Ki in assay [1] worked out at 35.4 nM. Further, the minimal effective concentration came to 10 µM in assay [2] (72 hours, read-out: Di MF) and 3.3 µM in assay [3] (setting [4]).
Regarding `O=C(NCc1ccnc(Cl)c1)N1CC2(CCN(C/C=C/c3ccc(C(F)(F)F)cn3)CC2)c2cc(C(F)(F)F)ccc21` [Example 151, (E)-N-((2-chloropyridin-4-yl)methyl)-5-(trifluoromethyl)-1′-(3-(5-(trifluoromethyl)pyridin-2-yl)allyl)spiro[indoline-3,4′-piperidine]-1-carboxamide], in assay [1], the Ki worked out at 518 nM. The values for the minimal effective concentration in assay [2] (setting [5]) and in assay [3] (setting [6]) were 4.3 µM and 5.7 µM, respectively.
As to `O=C(NCc1ccnc(Cl)c1)N1CC2(CCN(C/C=C/c3ccc(Cl)c(Cl)c3)CC2)c2cc3c(cc21)OCCO3` [Example 9, (E)-N-((2-chloropyridin-4-yl)methyl)-1-(3-(3,4-dichlorophenyl)allyl)-2′,3′-dihydrospiro[piperidine-4,8′-[1,4]dioxino[2,3-f]indole]-6′(7′H)-carboxamide], the Ki in assay [1] came out at 62.8 nM. Besides, the minimal effective concentration in assay [2] (setting [5]) worked out at 10 µM; in assay [3] (setting [6]), 33 µM.
The matching figures for `O=C(NCc1cscn1)N1CC2(CCN(C/C=C/c3ccc(Cl)c(Cl)c3)CC2)c2c1ccc1scnc21` [Example 24, (E)-1-(3-(3,4-dichlorophenyl)allyl)-N-(thiazol-4-ylmethyl)spiro[piperidine-4,8′-thiazolo[4,5-e]indole]-6′(7′H)-carboxamide]: 1100 nM, 33 µM and 100 µM.
Regarding `O=C(NCC1CCCO1)N1CC2(CCN(C/C=C/c3ccc(Cl)c(Cl)c3)CC2)c2c1ccc1scnc21` (racemic) [Example 34, (+/−)(E)-1-(3-(3,4-dichlorophenyl)allyl)-N-((tetrahydrofuran-2-yl)methyl)spiro[piperidine-4,8′-thiazolo[4,5-e]indole]-6′(7′H)-carboxamide], the Ki in assay [1] came to 467 nM. For the same molecule, the minimal effective concentration stood at 3.3 µM in assay [2] (setting [5]) and 100 µM in assay [3] (setting [6]).
In the case of `N#Cc1ccc(-c2ccc3c(c2)C2(CCN(C/C=C/c4ccc(Cl)cc4)CC2)CN3C(=O)NCc2ccnc(F)c2)cn1` [Example 109, 1′-[(E)-3-(4-chlorophenyl)allyl]-5-(6-cyano-3-pyridyl)-N-[(2-fluoro-4-pyridyl)methyl]spiro[indoline-3,4′-piperidine]-1-carboxamide], the Ki in assay [1] was 50.8 nM. Also, the minimal effective concentration in assay [2] (setting [5]) turned out to be 1.8 µM; in assay [3] (setting [6]) it was 3.3 µM.
With `O=C(NCc1ccnc(Cl)c1)N1CC2(CCN(C/C=C/c3ccc(F)cc3)CC2)c2c1ccc(Cl)c2Cl` [Example 143, (E)-4,5-dichloro-N-((2-chloropyridin-4-yl)methyl)-1′-(3-(4-fluorophenyl)allyl)spiro[indoline-3,4′-piperidine]-1-carboxamide], the Ki in assay [1] came out at 114 nM. For the same molecule, the minimal effective concentration was found to be 5.7 µM in assay [2] (72 hours, read-out: Di MF) and 3.3 µM in assay [3] (setting [4]).
On to `O=C(NCc1ccnc(Cl)c1)N1CC2(CCN(C/C=C/c3ccc(Cl)cc3)CC2)c2c1ccc(F)c2C(F)(F)F` [Example 173, (E)-1′-(3-(4-chlorophenyl)allyl)-N-((2-chloropyridin-4-yl)methyl)-5-fluoro-4-(trifluoromethyl)spiro[indoline-3,4′-piperidine]-1-carboxamide], for which the Ki in assay [1] is 465 nM. The figures for the minimal effective concentration in assay [2] (setting [5]) and in assay [3] (setting [6]) were 5.7 µM and 100 µM, respectively.
